Experimental data published in patent publication US20260049104A1, “PEPTIDES WITH ANTIMICROBIAL PROPERTIES” (priority 2022, published 2026).
Values after ≈ are worked out from the molar mass of the structure shown. Where two headings read alike, the source gives them in different places. No end group written: not given here.

Key:
[1] = tested on: Gram-positive and Gram-negative bacteria; conditions: panel of E. coli, K. pneumoniae, E. cloacae, A. baumannii, E. faecalis and S. aureus; preliminary screening
Description: (§1) MIC screening of the peptides against a panel of ATCC and clinical strains was performed using broth microdilution method.^1 Briefly, peptides stock solutions in DMSO (0.1/G TFA) were diluted into Mueller Hinton Broth (MHB), followed by two-fold serial dilution in a 96-well plate. Bacteria culture in mid-log phase was diluted into MHB to yield […] colony-forming units (CFU)/mL. Equal volume of the starting inoculum was added to the peptide samples, then incubated for 18-20 h (37° C., 120 rpm). OD600 of the samples was then measured using Tecan Infinite M200 (TECAN, Männedorf, Switzerland). MIC is defined as the lowest peptide concentration to achieve more than 90% reduction in OD600 relative to the drug-free control. The experiments were repeated three times. Colistin-resistant clinical isolates are a kind gift from Dr. Jeanette Koh (National University Hospital, Singapore). Multidrug-resistant clinical isolates are a kind gift from Dr. Lakshminarayanan Rajamani (Singapore Eye Research Institute, Singapore).
(§2) Kanamycin and ampicillin were used as antibacterial control agents. […] Then, sequential 2-fold serial dilutions of the mix were diluted in 50 μL MH broth and 50 μL cell cultures were added to wells. […] All assays were carried out in triplicate.

Klebsiella pneumoniae = tested on: Klebsiella pneumoniae
Description: as §1, §2

Acinetobacter baumannii = tested on: Acinetobacter baumannii
Description: as §1, §2

Staphylococcus aureus = Staphylococcus aureus ATCC 29737
Description: as §1, §2

Enterobacter cloacae = conditions: Enterobacter cloacae, strain not given; Table 14, preliminary screening
Description: as §1, §2

Escherichia coli = conditions: for MIC: Escherichia coli ATCC 25922
Description: as §1, §2

Enterococcus faecalis = type: cell-based; conditions: strain not given, Table 14, preliminary screening
Description: MIC values for compounds (1-11) were assessed using 96-well plate format with Mueller Hinton (MH) broth, using the two-fold dilution method, previously reported in standard methods provided by Clinical and Laboratory Standards S8 Institute (CLSI). Kanamycin and ampicillin were used as antibacterial control agents. According to the reference, the compounds (1-11) were first dissolved in DMSO+0.1% TFA at a concentration of 3.2 mg/mL and 4 μL was serially diluted in 96 μL of MH broth. Then, sequential 2-fold serial dilutions of the mix were diluted in 50 μL MH broth and 50 μL cell cultures were added to wells. […] All assays were carried out in triplicate.

Bacillus subtilis = type: cell-based; conditions: Bacillus subtilis ATCC 6633
Description: (§3) The experiments were repeated three times.

Pseudomonas aeruginosa = type: cell-based; conditions: Pseudomonas aeruginosa ATCC 9027
Description: as §3

Morganella morganii = type: cell-based; conditions: Morganella morganii ATCC 25830
Description: as §3

[2] = Table 14, preliminary screening

| Molecule | antibacterial activity [1] | MIC (Klebsiella pneumoniae; Klebsiella pneumoniae ATC 700603, Table 14, preliminary screening) [µg/mL] | MIC (Acinetobacter baumannii; Acinetobacter baumanii ATCC 19606, Table 14, preliminary screening) [µg/mL] | MIC (Staphylococcus aureus; [2]) [µg/mL] | MIC (Enterobacter cloacae) [µg/mL] | MIC (Escherichia coli; [2]) [µg/mL] | MIC (Enterococcus faecalis) [µg/mL] | MIC (Bacillus subtilis) [µg/mL] | MIC (Pseudomonas aeruginosa) [µg/mL] | MIC (Morganella morganii) [µg/mL] | MIC (Klebsiella pneumoniae; Klebsiella pneumoniae ATCC 700603) [µg/mL] | MIC (Acinetobacter baumannii; Acinetobacter baumannii ATCC 19606) [µg/mL] | MIC (Staphylococcus aureus) [µg/mL] | MIC (Escherichia coli) [µg/mL] | MIC (E. coli) (Escherichia coli; strain not stated, product produced and tested against E. coli) [µg/mL] |
| --- | --- | --- | --- | --- | --- | --- | --- | --- | --- | --- | --- | --- | --- | --- | --- |
| RGEGWVRAYWAKRF [Compound 26] | not active | >64 | >64 | >64 | >64 | >64 | >64 |  |  |  |  |  |  |  |  |
| CC[C@H](C)[C@H](NC(=O)[C@H](CCCNC(=N)N)NC(=O)[C@H]1NC(=O)[C@H]([C@@H](C)O)NC(=O)[C@@H](NC(=O)[C@H]2NC(=O)[C@H](C)NC(=O)[C@@H](NC(=O)[C@H](C)NC(=O)[C@H]3NC(=O)[C@H]([C@@H](C)CC)NC(=O)[C@@H](N)Cc4c[nH]c5cc(ccc45)[C@@H]3C(N)=O)Cc3ccc(cc3)[C@@H]2C(N)=O)Cc2c[nH]c3cc(ccc23)[C@@H]1CCCN)C(=O)O [xenorceptide A3] |  |  |  |  |  |  |  | >64 | 64 (≈ 42.3 µM) | 64 (≈ 42.3 µM) | 8 (≈ 5.28 µM) | >64 | >64 | 8 (≈ 5.28 µM) | 8 (≈ 5.28 µM) |
